Measured values as given in US6258790A, “Antisense modulation of integrin α4 expression” (Isis Pharmaceuticals, Inc., priority 1999, dated 2001).

System: human integrin α4
Experiment: Inhibition of human integrin α4 protein levels by antisense oligonucleotides (LIPOFECTIN, flow cytometry with CD49d-FITC) in A375 melanoma cells
Format: cell-based
Design: % Inhib.: tested at 200 nM
Details: for inhibition (Example 11): Example 11 assay, dose not stated; for % Control (integrin α4 protein) / % Inhib (integrin α4 protein): Table 1, 200 nM oligonucleotide, 6 ug/ml LIPOFECTIN; for % CONTROL 48 hr / % INHIB 48 hr / % CONTROL 72 hr / % INHIB 72 HR: Table 2, A375
Source text: Integrin α4 protein levels can be quantitated in a variety of ways well known in the art, such as immunoprecipitation, Western blot analysis (immunoblotting), ELISA or fluorescence-activated cell sorting (FACS). Antibodies directed to integrin α4 can be identified and obtained from a variety of sources, such as the MSRS catalog of antibodies (Aerie Corporation, Birmingham, Mich.), or can be prepared via conventional antibody generation methods.
Target sites are indicated by nucleotide numbers, as given in the sequence source reference (GenBank accession no. L12002), to which the oligonucleotide binds. All compounds in Table 1 are 18 nucleotides in length, with a phosphorothioate backbone and a centered 10-base deoxynucleotide gap flanked by 2'-methoxyethoxy (2'MOE) wings. Human A375 melanoma cells (American Type Culture Collection, Manassas, Va.) were plated at 2000 cells/cm^2 two days before oligonucleotide treatment. Cells were treated with oligonucleotides at a dose of 200 nM oligonucleotide and 6 ug/ml LIPOFECTIN for four hours. Cells were incubated overnight and harvested with 2 mM EDTA in PBS. Cells were washed in 2% bovine serum albumin, 0.2% sodium azide in D-PBS at 4° C. Cells were centrifuged at 200×g, and the supernatant was decanted. […] Antibodies were incubated with the cells for 30 minutes at 4° C. in the dark, under gentle agitation. Cells were washed again as above and then resuspended in 0.3 ml of FacsFlow buffer with 0.5% formaldehyde. Cells were analyzed on Becton Dickinson FACScan. Results are expressed as percentage of control expression based on mean fluorescence intensity.
Cells were harvested with trypsin at 48 and 72 hours after oligonucleotide treatment and stained with 2 ug/ml CD49d-FITC as in the previous example.
Where backbones are mixed, linkages are shown as "s" for phosphorothioate (P=S or PS) and "o" for phosphodiester (P=O or PO). Where target region is indicated as `M62841,` oligonucleotides are targeted to the promotor region whose sequence is described in GenBank Accession No. M62841. Remaining oligonucleotides are targeted to the sequence described in Genbank Accession No. L12002 and their target sites on the L12002 sequence are indicated.
Target sites refer to nucleotide numbers on the target sequence (GenBank Accession No. L12002) to which the oligonucleotides hybridize.
Oligonucleotides were synthesized as "gapmers" consisting of a 9-nucleotide region of deoxynucleotides flanked by three 2'-O-methoxyethyl(2'-MOE) nucleotides on the 5' end and eight 2'-MOE nucleotides on the 3' end. 2'-MOE nucleotides are shown in bold in the table. Oligonucleotides were synthesized with phosphorothioate backbones throughout, and all cytosines are 5-methylcytosines.

[1] = Table 24, A375 cells, lipofectin, as Example 8

24477 (TCCATTCTCTCAATTTGA; chemistry not given here) [compound 24477]
inhibition (Example 11): ≥ 40% | % Control (integrin α4 protein) (A375 cells): 43% | % CONTROL 48 hr (50 nM): 56% | % INHIB 48 hr (50 nM): 44% | % CONTROL 72 hr (50 nM): 72% | % INHIB 72 HR (50 nM): 28% | % CONTROL 48 hr (100 nM): 47% | % INHIB 48 hr (100 nM): 53% | % CONTROL 72 hr (100 nM): 67% | % INHIB 72 HR (100 nM): 33% | % CONTROL 48 hr (200 nM): 34% | % INHIB 48 hr (200 nM): 66% | % CONTROL 72 hr (200 nM): 44% | % INHIB 72 HR (200 nM): 56% | % CONTROL 48 hr (400 nM): 35% | % INHIB 48 hr (400 nM): 65% | % CONTROL 72 hr (400 nM): 53% | % INHIB 72 HR (400 nM): 47% | % Control (Table 6, 10 nM): 83% | % Inhib. (Table 6, 10 nM): 17% | % Control (Table 6, 30 nM): 80% | % Inhib. (Table 6, 30 nM): 20% | % Control (Table 6, 100 nM): 63% | % Inhib. (Table 6, 100 nM): 37% | % Control (Table 6, 300 nM): 33% | % Inhib. (Table 6, 300 nM (highest dose)): 67%

24471 (ACCGAAAAGCACCAACTG; chemistry not given here) [compound 24471]
% Control (integrin α4 protein) (A375 cells): 80% | % Inhib (integrin α4 protein) (A375 cells): 20%

24472 (CTTGTCCTTAGCAAGACA; chemistry not given here) [compound 24472]
% Control (integrin α4 protein) (A375 cells): 65% | % Inhib (integrin α4 protein) (A375 cells): 35%

107244 (antisense AGGATAGATTTGTATTGTCT; chemistry not given here) [compound 107244]
% Control [1]: 37%

107239 (antisense ACTTCCTTGCCCTTATATGA; chemistry not given here) [compound 107239]
% Control [1]: 29%

24443 (CAAAGTTGCACGGGATGC; chemistry not given here) [compound 24443]
% Control (integrin α4 protein) (A375 cells): 63% | % Inhib (integrin α4 protein) (A375 cells): 37%

107260 (antisense TTTGCCAGTTTGGCCTATAA; chemistry not given here) [compound 107260]
% Control [1]: 50%

24466 (TTGTCAATGTCGCCAAGA; chemistry not given here) [compound 24466]
% Control (integrin α4 protein) (A375 cells): 64% | % Inhib (integrin α4 protein) (A375 cells): 36%

24478 (GGCGGGCTGTTTTCCATT; chemistry not given here) [compound 24478]
% Control (integrin α4 protein) (A375 cells): 115%

24468 (CCATCTGCACGGCCATTG; chemistry not given here) [compound 24468]
% Control (integrin α4 protein) (A375 cells): 72% | % Inhib (integrin α4 protein) (A375 cells): 28%

24467 (TCATCTTCTTGTGGAGCT; chemistry not given here) [compound 24467]
% Control (integrin α4 protein) (A375 cells): 101%

107247 (antisense AAGAAGTCCTTAATCATCAT; chemistry not given here) [compound 107247]
% Control [1]: 65% | % Inhib. [1]: 35%

24460 (TTTCATGTAAGATATTTA; chemistry not given here) [compound 24460]
% Control (integrin α4 protein) (A375 cells): 94%

24465 (TGCAGCATATTTGTCACT; chemistry not given here) [compound 24465]
% Control (integrin α4 protein) (A375 cells): 63% | % Inhib (integrin α4 protein) (A375 cells): 37%

24462 (TGGTGCTCTGCATGGGTG; chemistry not given here) [compound 24462]
% Control (integrin α4 protein) (A375 cells): 65% | % Inhib (integrin α4 protein) (A375 cells): 35%

107233 (antisense ATGCGACGGTTGGCCAACGG; chemistry not given here) [compound 107233]
% Control [1]: 57% | % Inhib. [1]: 43%

24444 (GGAACATTCAACACTAAG; chemistry not given here) [compound 24444]
% Control (integrin α4 protein) (A375 cells): 68% | % Inhib (integrin α4 protein) (A375 cells): 32%

107254 (antisense TGCTTTAGTGTTTCTCTACC; chemistry not given here) [compound 107254]
% Control [1]: 33%

26641 (GAGCTTATTTTCATTCTTTA; phosphorothioate, 2'-MOE/deoxy, further chemistry not given here) [compound 26641]
inhibition (Example 11): ≥ 40% | % Control (Table 6, 10 nM): 88% | % Inhib. (Table 6, 10 nM): 12% | % Control (Table 6, 30 nM): 85% | % Inhib. (Table 6, 30 nM): 15% | % Control (Table 6, 100 nM): 67% | % Inhib. (Table 6, 100 nM): 33% | % Control (Table 6, 300 nM): 31% | % Inhib. (Table 6, 300 nM (highest dose)): 69%

107237 (antisense CGCGCCTCGCTTCCCAAGCC; chemistry not given here) [compound 107237]
% Control [1]: 46%

24448 (ACTGAAGCGTTGGCGAGC; chemistry not given here) [compound 24448]
% Control (integrin α4 protein) (A375 cells): 55% | % Inhib (integrin α4 protein) (A375 cells): 45%

24441 (CCTGGGATGCCGCGCACT; chemistry not given here) [compound 24441]
% Control (integrin α4 protein) (A375 cells): 112%

26644 (TTTCCATTCTCTCAATTTGA; phosphorothioate, 2'-MOE/deoxy, further chemistry not given here) [compound 26644]
inhibition (Example 11): ≥ 40% | % Control (Table 6, 10 nM): 99% | % Control (Table 6, 30 nM): 94% | % Control (Table 6, 100 nM): 78% | % Inhib. (Table 6, 100 nM): 22% | % Control (Table 6, 300 nM): 48% | % Inhib. (Table 6, 300 nM (highest dose)): 52%

24454 (TTCTTTTACTCAGTTCTG; chemistry not given here) [compound 24454]
% Control (integrin α4 protein) (A375 cells): 53% | % Inhib (integrin α4 protein) (A375 cells): 47%

107249 (antisense CTTGTAAACAGTGTCTTTTA; chemistry not given here) [compound 107249]
% Control [1]: 38%

107231 (antisense GTGCGGAGGCGCAGGGCCGG; chemistry not given here) [compound 107231]
% Control [1]: 115%

107242 (antisense TGAGATCAACAGAAGTACAA; chemistry not given here) [compound 107242]
% Control [1]: 44%

107236 (antisense GCCTCGCTTCCCAAGCCATG; chemistry not given here) [compound 107236]
% Control [1]: 43%

24439 (CTCCGTCTCTGCCTACGC; chemistry not given here) [compound 24439]
% Control (integrin α4 protein) (A375 cells): 120%

107251 (antisense CCTTGCATGAAGACATAATA; chemistry not given here) [compound 107251]
% Control [1]: 40%

107250 (antisense GAGTAAAAGAAGTCCAAACA; chemistry not given here) [compound 107250]
% Control [1]: 57% | % Inhib. [1]: 43%

107240 (antisense AGAGTTATCTGTGACTTCAC; chemistry not given here) [compound 107240]
% Control [1]: 40%

107258 (antisense TTAAAGTGATAATGGTCCAC; chemistry not given here) [compound 107258]
% Control [1]: 39%

24452 (GGATCCATTTTCTCCTGG; chemistry not given here) [compound 24452]
% Control (integrin α4 protein) (A375 cells): 60% | % Inhib (integrin α4 protein) (A375 cells): 40%

24456 (CCCATCACAATTAAATCC; chemistry not given here) [compound 24456]
% Control (integrin α4 protein) (A375 cells): 76% | % Inhib (integrin α4 protein) (A375 cells): 24%

107235 (antisense TCGCTTCCCAAGCCATGCGC; chemistry not given here) [compound 107235]
% Control [1]: 36%

24451 (CCACTGATTGTCTCTCTC; chemistry not given here) [compound 24451]
inhibition (Example 11): ≥ 40% | % Control (integrin α4 protein) (A375 cells): 51% | % CONTROL 48 hr (50 nM): 63% | % INHIB 48 hr (50 nM): 37% | % CONTROL 48 hr (100 nM): 44% | % INHIB 48 hr (100 nM): 56% | % CONTROL 48 hr (200 nM): 34% | % INHIB 48 hr (200 nM): 66% | % CONTROL 48 hr (400 nM): 44% | % INHIB 48 hr (400 nM): 56% | % Control (Table 6, 10 nM): 96% | % Control (Table 6, 30 nM): 77% | % Inhib. (Table 6, 30 nM): 23% | % Control (Table 6, 100 nM): 66% | % Inhib. (Table 6, 100 nM): 34% | % Control (Table 6, 300 nM): 35% | % Inhib. (Table 6, 300 nM (highest dose)): 65%
